Assay results taken from US20110117195A1, “METHOD FOR IMPROVING MYOCARDIAL INFARCTION BY INTRAMYOCARDIAL OR TRANSENDOCARDIAL INJECTION OF PEPTIDE NANOFIBERS” (National Cheng Kung University, priority 2009, published 2011).

Tests used:
Format in all cases: in vivo
[1] = test system: Lanyu mini-pig models of experimental myocardial infarction (MI); experiment: Cardiac catheterization (hemodynamic parameters) after coronary artery ligation in mini-pigs
Protocol: (§1) Sexually matured Lanyu mini-pigs (about 5 months old, body weight: 21.8±3.1 kg), were divided into 3 groups: the first group is sham operation, suturing was performed without ligation (n=4); the second group is mid-left coronary artery ligation (for simulating myocardial infarction, MI) immediately followed with injection of normal saline solution (MI+NS, n=4); and the third group is mid-left coronary artery ligation immediately followed with injection of 1% peptide nanofibers solution (MI+NFs, n=5) in the entire infarcted area with a total of 2 ml NFs divided by 40 delivery sites (50 ul for each site), wherein the sequence of peptide NFs is AcN-RARADADARARADADA-NH2. Cardiac functions were assessed by echocardiography immediately after MI and together with cardiac catheterization 4 weeks later.
(§2) In the preferred embodiment of the present invention, the peptide nanofibers solution contains peptide nanofibers which can form a biologically compatible peptide hydrogel, wherein the biologically compatible peptide hydrogel is prepared by: dissolving powders of the self-assembling peptide nanofibers in a buffer solution, such as pH 7.4 phosphate buffered saline (PBS) solution; and mixing the powders of the self-assembling peptide nanofibers with the buffer solution by sonication (100 W, 10 mins), so as to obtain a hydrogel solution of the biologically compatible peptide hydrogel (i.e. the peptide nanofibers solution), wherein the percentage of the self-assembling peptide nanofibers in the solution can be 0.1-10% by weight of the solution, preferably 0.5-5% by weight, and more preferably 1.0% by weight; and wherein the volume of the solution of the biologically compatible peptide hydrogel is preferably 0.1-10 ml, and more preferably 2 ml. In the embodiment, the percentage of the self-assembling peptide nanofibers in the solution is 1.0% by weight, and the volume of the solution of the biologically compatible peptide hydrogel is 2 ml. Meanwhile, the buffer solution (PBS) is added with monovalent metal cation compound of a concentration sufficient to promote the self-assembly of the self-assembling peptide nanofibers, wherein the monovalent metal cation is selected from the group consisting of: lithium (Li^+), sodium (Na^+) and potassium (K^+). In the embodiment, the monovalent metal cation compound is sodium […].
(§3) Besides, the pharmaceutical composition of the second and third groups is injected to a plurality of delivery sites in the entire infarcted area of myocardium tissue, respectively, wherein the number of the delivery sites is preferably ranged between 10 and 100, and more preferably 40, without limitation thereto. The plurality of delivery sites in the entire infarcted area is advantageous to increase the distribution density to support materials (e.g. peptide nanofibers). In addition, the infarcted area of myocardium tissue is preferably a mid-left portion of myocardium tissue of an injured heart with myocardial infarction, but also can be any infarcted area of the heart. The self-assembling peptide nanofibers (AcN-RARADADARARADADA-NH2) are 16 amino acids in length, but also can be 8-200 amino acids in length, and preferably 12-32 amino acids in length. […]

[2] = test system: Lanyu mini-pig models of experimental myocardial infarction (MI); experiment: Echocardiography after coronary artery ligation in mini-pigs
Protocol: as §1, §2, §3

[3] = test system: Lanyu mini-pig models of experimental myocardial infarction (MI); experiment: Immunohistological index (myocardial capillary density) after coronary artery ligation in mini-pigs
Protocol: as §1, with “later. […]” for “later.”

[4] = Table 1, 28 days after infarction, 2 ml intramyocardial in 40 sites, in mmHg/s (unit assumed)
[5] = Table 1, 28 days after infarction, 2 ml intramyocardial in 40 sites
[6] = one month after MI, P<0.01 vs MI+NS

AcN-RARADADARARADADA-NH2 (Ac-RARADADARARADADA-NH2) [MI + NFs, self-assembling peptide nanofibers forming a hydrogel]
Emax (maximal chamber elasticity) ([1]; Table 1, 28 days after infarction, 2 ml intramyocardial in 40 sites, in mmHg/mL (unit assumed)): 2.80 ± 1.43 | +dP/dt Max [1, 4]: 1458 ± 154 | −dP/dt Max [1, 4]: −1850 ± 94 | diastolic function and ventricular remodeling ([1]; one month after MI, end-diastolic and end-systolic volumes, −dP/dt Max, Emax): significantly improved | systolic function (ejection fraction and +dP/dt Max) compared to the (MI+NS) group ([1]; one month after MI, no significant difference): only modest improvement | E.F. (ejection fraction) [2, 5]: 47 ± 8 | IVS-D (thickness of inter-ventricular septum, diastolic) [2, 5]: 0.6 ± 0.12 cm | IVS-S (thickness of inter-ventricular septum, systolic) [2, 5]: 0.7 ± 0.13 cm | thickness of inter-ventricular septum on diastolic (IVS-D) phase [2, 6]: 0.6 ± 0.12 cm | thickness of inter-ventricular septum on systolic (IVS-S) phase [2, 6]: 0.7 ± 0.13 cm | M.C.D. (myocardial capillary density) [3, 5]: 286 ± 179 number/mm^2 | myocardial capillary density (M.C.D.) ([3]; one month after MI, in words): significantly increased
